Experimental data taken from patent publication EP0726263A2, “Herbicidal (1,3,4)oxadiazoles and thiadiazoles” (American Cyanamid Company, priority 1995, dated 1996).

Experiments:
Format in all cases: in vivo
[1] = system: Abutilon theophrasti; assay: Herbicidal activity, preemergence test; conditions: pre; sprayed onto soil, 800 g of active material per hectare; evaluated 3 weeks after treatment
In short: (§1)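 Spray dose 800 g a.i./ha in 900 L/ha; acetone stock with 0.4% Triton X-155, water-diluted. Pre: sown loam soil, read at 3 wk. Post: seedling plants, read at 2 wk. Visual 0-9 rating vs untreated.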

[2] = system: Alopecurus myosuroides; assay: Herbicidal activity, preemergence test; conditions: pre; sprayed onto soil, 800 g of active material per hectare; evaluated 3 weeks after treatment
In short: as §1

[3] = system: Amaranthus retroflexus; assay: Herbicidal activity, preemergence test; conditions: pre; sprayed onto soil, 800 g of active material per hectare; evaluated 3 weeks after treatment
In short: as §1

[4] = system: Ambrosia artemisifolia; assay: Herbicidal activity, preemergence test; conditions: pre; sprayed onto soil, 800 g of active material per hectare; evaluated 3 weeks after treatment
In short: as §1

[5] = system: Chenopodium album; assay: Herbicidal activity, preemergence test; conditions: pre; sprayed onto soil, 800 g of active material per hectare; evaluated 3 weeks after treatment
In short: as §1

[6] = system: Galium aparine; assay: Herbicidal activity, preemergence test; conditions: pre; sprayed onto soil, 800 g of active material per hectare; evaluated 3 weeks after treatment
In short: as §1

[7] = system: Glycine max; assay: Herbicidal activity, preemergence test; conditions: pre; sprayed onto soil, 800 g of active material per hectare; evaluated 3 weeks after treatment
In short: as §1

[8] = system: Gossypium hirsutum; assay: Herbicidal activity, preemergence test; conditions: pre; sprayed onto soil, 800 g of active material per hectare; evaluated 3 weeks after treatment
In short: as §1

[9] = system: Hordeum vulgare; assay: Herbicidal activity, preemergence test; conditions: pre; sprayed onto soil, 800 g of active material per hectare; evaluated 3 weeks after treatment
In short: as §1

[10] = system: Ipomoea hederacea; assay: Herbicidal activity, preemergence test; conditions: pre; sprayed onto soil, 800 g of active material per hectare; evaluated 3 weeks after treatment
In short: as §1

[11] = system: Lamium purpureum; assay: Herbicidal activity, preemergence test; conditions: pre; sprayed onto soil, 800 g of active material per hectare; evaluated 3 weeks after treatment
In short: as §1

[12] = system: Matricaria inodora; assay: Herbicidal activity, preemergence test; conditions: pre; sprayed onto soil, 800 g of active material per hectare; evaluated 3 weeks after treatment
In short: as §1

[13] = system: Papaver rhoeas; assay: Herbicidal activity, preemergence test; conditions: pre; sprayed onto soil, 800 g of active material per hectare; evaluated 3 weeks after treatment
In short: as §1

[14] = system: Setaria viridis; assay: Herbicidal activity, preemergence test; conditions: pre; sprayed onto soil, 800 g of active material per hectare; evaluated 3 weeks after treatment
In short: as §1

[15] = system: Stellaria media; assay: Herbicidal activity, preemergence test; conditions: pre; sprayed onto soil, 800 g of active material per hectare; evaluated 3 weeks after treatment
In short: as §1

[16] = system: Triticum aestivum; assay: Herbicidal activity, preemergence test; conditions: pre; sprayed onto soil, 800 g of active material per hectare; evaluated 3 weeks after treatment
In short: as §1

[17] = system: Veronica persica; assay: Herbicidal activity, preemergence test; conditions: pre; sprayed onto soil, 800 g of active material per hectare; evaluated 3 weeks after treatment
In short: as §1

[18] = system: Zea mays; assay: Herbicidal activity, preemergence test; conditions: pre; sprayed onto soil, 800 g of active material per hectare; evaluated 3 weeks after treatment
In short: as §1

[19] = system: Abutilon theophrasti; assay: Herbicidal activity, postemergence test; conditions: post; sprayed onto seedling plants, 800 g of active material per hectare; evaluated 2 weeks after treatment
In short: as §1

[20] = system: Alopecurus myosuroides; assay: Herbicidal activity, postemergence test; conditions: post; sprayed onto seedling plants, 800 g of active material per hectare; evaluated 2 weeks after treatment
In short: as §1

[21] = system: Amaranthus retroflexus; assay: Herbicidal activity, postemergence test; conditions: post; sprayed onto seedling plants, 800 g of active material per hectare; evaluated 2 weeks after treatment
In short: as §1

[22] = system: Ambrosia artemisifolia; assay: Herbicidal activity, postemergence test; conditions: post; sprayed onto seedling plants, 800 g of active material per hectare; evaluated 2 weeks after treatment
In short: as §1

[23] = system: Chenopodium album; assay: Herbicidal activity, postemergence test; conditions: post; sprayed onto seedling plants, 800 g of active material per hectare; evaluated 2 weeks after treatment
In short: as §1

[24] = system: Galium aparine; assay: Herbicidal activity, postemergence test; conditions: post; sprayed onto seedling plants, 800 g of active material per hectare; evaluated 2 weeks after treatment
In short: as §1

[25] = system: Glycine max; assay: Herbicidal activity, postemergence test; conditions: post; sprayed onto seedling plants, 800 g of active material per hectare; evaluated 2 weeks after treatment
In short: as §1

[26] = system: Gossypium hirsutum; assay: Herbicidal activity, postemergence test; conditions: post; sprayed onto seedling plants, 800 g of active material per hectare; evaluated 2 weeks after treatment
In short: as §1

[27] = system: Hordeum vulgare; assay: Herbicidal activity, postemergence test; conditions: post; sprayed onto seedling plants, 800 g of active material per hectare; evaluated 2 weeks after treatment
In short: as §1

[28] = system: Ipomoea hederacea; assay: Herbicidal activity, postemergence test; conditions: post; sprayed onto seedling plants, 800 g of active material per hectare; evaluated 2 weeks after treatment
In short: as §1

[29] = system: Lamium purpureum; assay: Herbicidal activity, postemergence test; conditions: post; sprayed onto seedling plants, 800 g of active material per hectare; evaluated 2 weeks after treatment
In short: as §1

[30] = system: Matricaria inodora; assay: Herbicidal activity, postemergence test; conditions: post; sprayed onto seedling plants, 800 g of active material per hectare; evaluated 2 weeks after treatment
In short: as §1

[31] = system: Papaver rhoeas; assay: Herbicidal activity, postemergence test; conditions: post; sprayed onto seedling plants, 800 g of active material per hectare; evaluated 2 weeks after treatment
In short: as §1

[32] = system: Setaria viridis; assay: Herbicidal activity, postemergence test; conditions: post; sprayed onto seedling plants, 800 g of active material per hectare; evaluated 2 weeks after treatment
In short: as §1

[33] = system: Stellaria media; assay: Herbicidal activity, postemergence test; conditions: post; sprayed onto seedling plants, 800 g of active material per hectare; evaluated 2 weeks after treatment
In short: as §1

[34] = system: Triticum aestivum; assay: Herbicidal activity, postemergence test; conditions: post; sprayed onto seedling plants, 800 g of active material per hectare; evaluated 2 weeks after treatment
In short: as §1

[35] = system: Veronica persica; assay: Herbicidal activity, postemergence test; conditions: post; sprayed onto seedling plants, 800 g of active material per hectare; evaluated 2 weeks after treatment
In short: as §1

[36] = system: Zea mays; assay: Herbicidal activity, postemergence test; conditions: post; sprayed onto seedling plants, 800 g of active material per hectare; evaluated 2 weeks after treatment
In short: as §1

| SMILES | ABUTH control rating (0-9) [1] | ALOMY control rating (0-9) [2] | AMARE control rating (0-9) [3] | AMBEL control rating (0-9) [4] | CHEAL control rating (0-9) [5] | GALAP control rating (0-9) [6] | GLXMA control rating (0-9) [7] | GOSHI control rating (0-9) [8] | HORVW control rating (0-9) [9] | IPOHE control rating (0-9) [10] | LAMPU control rating (0-9) [11] | MATIN control rating (0-9) [12] | PAPRH control rating (0-9) [13] | SETVI control rating (0-9) [14] | STEME control rating (0-9) [15] | TRZAW control rating (0-9) [16] | VERPE control rating (0-9) [17] | ZEAMX control rating (0-9) [18] | ABUTH control rating (0-9) [19] | ALOMY control rating (0-9) [20] | also measured |
| --- | --- | --- | --- | --- | --- | --- | --- | --- | --- | --- | --- | --- | --- | --- | --- | --- | --- | --- | --- | --- | --- |
| C[C@H](NC(=O)c1nnc(-c2ccc(Cl)cc2Cl)o1)c1ccccc1 [Example 26] | 0 (no effect) | 0 (no effect) | 3 (moderate effect) | 0 (no effect) | 0 (no effect) | 0 (no effect) | 0 (no effect) | 0 (no effect) | 0 (no effect) | 0 (no effect) | 0 (no effect) | 0 (no effect) | 9 (complete kill) | 0 (no effect) | 0 (no effect) | 0 (no effect) | 7 (good herbicidal effect) | 0 (no effect) | 1 (trace effect) | 0 (no effect) | AMARE control rating (0-9) [21]: 8 (approaching complete kill); AMBEL control rating (0-9) [22]: 0 (no effect); CHEAL control rating (0-9) [23]: 5 (definite injury); GALAP control rating (0-9) [24]: 0 (no effect); GLXMA control rating (0-9) [25]: 2 (slight effect); GOSHI control rating (0-9) [26]: 3 (moderate effect); HORVW control rating (0-9) [27]: 0 (no effect); IPOHE control rating (0-9) [28]: 0 (no effect); LAMPU control rating (0-9) [29]: 7 (good herbicidal effect); MATIN control rating (0-9) [30]: 2 (slight effect); PAPRH control rating (0-9) [31]: 3 (moderate effect); SETVI control rating (0-9) [32]: 4 (injury); STEME control rating (0-9) [33]: 6 (herbicidal effect); TRZAW control rating (0-9) [34]: 0 (no effect); VERPE control rating (0-9) [35]: 3 (moderate effect); ZEAMX control rating (0-9) [36]: 0 (no effect) |
| C[C@H](NC(=O)c1nnc(-c2ccc(Cl)c(Cl)c2)o1)c1ccccc1 [Example 27] | 0 (no effect) | 0 (no effect) | 0 (no effect) | 0 (no effect) | 0 (no effect) | 0 (no effect) | 0 (no effect) | 0 (no effect) | 0 (no effect) | 0 (no effect) | 0 (no effect) | 0 (no effect) | 3 (moderate effect) | 0 (no effect) | 0 (no effect) | 0 (no effect) | 3 (moderate effect) | 0 (no effect) | 0 (no effect) | 0 (no effect) | AMARE control rating (0-9) [21]: 5 (definite injury); AMBEL control rating (0-9) [22]: 0 (no effect); CHEAL control rating (0-9) [23]: 6 (herbicidal effect); GALAP control rating (0-9) [24]: 0 (no effect); GLXMA control rating (0-9) [25]: 2 (slight effect); GOSHI control rating (0-9) [26]: 2 (slight effect); HORVW control rating (0-9) [27]: 0 (no effect); IPOHE control rating (0-9) [28]: 0 (no effect); LAMPU control rating (0-9) [29]: 4 (injury); MATIN control rating (0-9) [30]: 0 (no effect); PAPRH control rating (0-9) [31]: 2 (slight effect); SETVI control rating (0-9) [32]: 0 (no effect); STEME control rating (0-9) [33]: 0 (no effect); TRZAW control rating (0-9) [34]: 0 (no effect); VERPE control rating (0-9) [35]: 0 (no effect); ZEAMX control rating (0-9) [36]: 0 (no effect) |
